US20220047752A1, “BIOLOGICAL INDICATOR FOR DISINFECTION PROCESS CHALLENGE DEVICE” (3M INNOVATIVE PROPERTIES COMPANY, priority 2016, published 2022)

Legend:
[1] = system: Aspergillus brasiliensis (ATCC 16404) spores; test: Flow-through disinfection, indicator device connected to the AER flow pump system; spore viability in malt extract broth; format: cell-based; conditions: 0.35% OPA at 25 C pumped through device at approx. 25 ml/min, incubated up to 7 days, duplicate devices
Experimental: (§1) Aspergillus brasiliensis (ATCC 16404) was inoculated onto the surface of a potato dextrose agar culture and incubated 14 days at 25-30° C. After the incubation period, the surface of the plate was flooded with an aqueous solution of glycerol (10% v/v) and Tween 20 detergent (0.05% v/v). The viable fungal spore population was determined by standard plate counting method using PETRIFILM™ Rapid Yeast and Mold Count Plates (RYM) obtained from 3M Company (St. Paul, Minn.). The plates were incubated at 28-30° C. for 2-3 days. The resulting spore suspension was stored at −80 degrees C. until use.
(§2) The spore suspension was diluted in water to a concentration of approximately 10^8 spores/mL. Ten microliters (approximately 1×10^6 spores) of the diluted spore suspension was pipetted onto a circular disc (approximately 0.25 inch (6.4 mm) diameter) nonwoven carrier material (Sontara® grade 8005 nonwoven material obtained from Dupont (Candler, N.C.)). The spore-coated discs were allowed to dry for 24 hours at room temperature before assembling the indicator device.
(§3) Indicator devices were made by inserting aerosol-filter pipet tips (Part #16466-008; sterile aerosol 1000 uL pipet tips; VWR; Radnor, Pa.) into a piece of hollow tubing (Part #14-169-7C; PVC tubing, 0.25-inch (6.4 mm) inner diameter; Fisher Scientific; Waltham, Mass.), as shown in FIGS. 13-14. […]

[2] = system: Aspergillus brasiliensis (ATCC 16404) spores; test: Liquid disinfection process in AER basin, indicator device not connected to the pump; spore viability in malt extract broth; format: cell-based; conditions: 0.35% OPA (minimum effective concentration), 5 minute contact at 25 C, two rinses with purified water; approx. 1x10^6 spores on carrier; broth incubated 7 days at 30 C
Experimental: as §1, §2, §3

Measured: growth of spores in malt extract broth after contact with the liquid disinfectant

O=Cc1ccccc1C=O [OPA, ortho-phthalaldehyde]
No growth: [1]; 30 seconds contact | [1]; 5 minutes contact | [2]
